# Assay results: ChEMBL document CHEMBL1154408, “Molecular epidemiology of imipenem-resistant Acinetobacter haemolyticus and Acinetobacter baumannii isolates carrying plasmid-mediated OXA-40 from a Portuguese hospital” (2007)
# Assays:
# [1] = tested on: Acinetobacter baumannii; assay: Antibacterial activity against Acinetobacter baumannii B clone by Etest method; type: functional
# [2] = tested on: Acinetobacter baumannii; assay: Antibacterial activity against Acinetobacter baumannii C clone by Etest method; type: functional
# [3] = tested on: Acinetobacter haemolyticus; assay: Antibacterial activity against Acinetobacter haemolyticus expressing carbapenemase-encoding blaOXA-40 gene by Etest method; type: functional
# [4] = tested on: Acinetobacter baumannii; assay: Antibacterial activity against Acinetobacter baumannii A clone expressing carbapenemase-encoding blaOXA-40 gene by Etest method; type: functional
# [5] = tested on: Acinetobacter baumannii; assay: Antibacterial activity against Acinetobacter baumannii A clone expressing carbapenemase-encoding blaOXA-40 gene by agar dilution method; type: functional, organism-based
# [6] = tested on: Acinetobacter baumannii; assay: Antibacterial activity against Acinetobacter baumannii C clone by agar dilution method; type: functional, organism-based
# [7] = tested on: Acinetobacter baumannii; assay: Antibacterial activity against Acinetobacter baumannii B clone by agar dilution method; type: functional, organism-based
# [8] = tested on: Acinetobacter haemolyticus; assay: Antibacterial activity against Acinetobacter haemolyticus expressing carbapenemase-encoding blaOXA-40 gene by agar dilution method; type: functional, organism-based
MIC [1] [µg/mL],MIC [2] [µg/mL],MIC [4] [µg/mL],MIC [5] [µg/mL],MIC [6] [µg/mL],MIC [7] [µg/mL],Compound,MIC [3] [µg/mL],MIC [8] [µg/mL]
–,–,–,–,–,–,CO/N=C(\C(=O)N[C@@H]1C(=O)N2C(C(=O)[O-])=C(C[N+]3(C)CCCC3)CS[C@H]12)c1csc(N)n1,4,–
> 64,128,≥ 256,–,–,–,CC1(C)S[C@@H]2[C@H](NC(=O)[C@H](N)c3ccc(O)cc3)C(=O)N2[C@H]1C(=O)O [AMOXICILLIN],≥ 256,–
≥ 256,64,≥ 256,–,–,–,CCN1CCN(C(=O)N[C@@H](C(=O)N[C@@H]2C(=O)N3[C@@H]2SC(C)(C)[C@@H]3C(=O)O)c2ccccc2)C(=O)C1=O [PIPERACILLIN],≥ 256,–
≥ 256,≥ 256,≥ 256,–,–,–,CO[C@@]1(NC(=O)Cc2cccs2)C(=O)N2C(C(=O)O)=C(COC(N)=O)CS[C@@H]21 [CEFOXITIN],32,–
–,–,–,> 16,2,> 16,COLISTIN,–,4
–,–,–,–,–,–,C[C@H]1[C@H](NC(=O)/C(=N\OC(C)(C)C(=O)O)c2csc(N)n2)C(=O)N1S(=O)(=O)O [AZTREONAM],4,–
≥ 256,≥ 256,≥ 256,–,–,–,CC1(C)S[C@@H]2[C@H](NC(=O)[C@H](C(=O)O)c3ccsc3)C(=O)N2[C@H]1C(=O)O [TICARCILLIN],≥ 256,–

Compound,MIC [1] [µg/mL],MIC [2] [µg/mL],MIC [4] [µg/mL],MIC [5] [µg/mL],MIC [6] [µg/mL],MIC [7] [µg/mL],MIC [3] [µg/mL],MIC [8] [µg/mL]
C[C@@H](O)[C@H]1C(=O)N2C(C(=O)O)=C(SCCNC=N)C[C@H]12 [IMIPENEM ANHYDROUS],≥ 32,32,≥ 32,–,–,–,≥ 32,–
C[C@@H](O)[C@H]1C(=O)N2C(C(=O)O)=C(S[C@@H]3CN[C@H](C(=O)N(C)C)C3)[C@H](C)[C@H]12 [MEROPENEM],2,4,≥ 32,–,–,–,≥ 32,–
CC(C)(O/N=C(\C(=O)N[C@@H]1C(=O)N2C(C(=O)[O-])=C(C[n+]3ccccc3)CS[C@H]12)c1csc(N)n1)C(=O)O [CEFTAZIDIME],4,4,256,–,–,–,4,–
